Read-outs that look alike come from different tables or passages of the source.
Tests used:
[1] = test system: cocklebur; assay: Test B pre-/postemergence herbicide test; format: in vivo, Xanthium strumarium; conditions: for Plant response rating (0 to 100 scale), Cocklebur: 0 is no effect
Method in brief: (§1)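 Greenhouse pot assay with simultaneous preemergence (treated seed) and postemergence (2–18 cm seedlings) applications of surfactant-containing, non-phytotoxic solvent formulations. Response scored visually 13–15 days later on a 0–100 scale, 100 meaning complete control.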

[2] = test system: pigweed; assay: Test B pre-/postemergence herbicide test; format: in vivo, Amaranthus retroflexus; conditions: for Plant response rating (0 to 100 scale), Pigweed: 0 is no effect, preemergence
Method in brief: as §1

[3] = test system: rice; assay: Test B flooded paddy test; format: in vivo, Oryza sativa; conditions: 1000 g ai/ha, scale 0 to 100 (0 no effect, 100 complete control)
Method in brief: (§2)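 Greenhouse test; postemergence application to plants at 1–4 leaves (2–18 cm); paddy species at 2 leaves; evaluated visually vs controls at 13–15 days; scale 0–100 (100 = complete control).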

[4] = test system: giant foxtail; assay: Test B pre-/postemergence herbicide test; format: in vivo, Setaria faberi; conditions: for Plant response rating (0 to 100 scale), Foxtail, Giant: 0 is no effect
Method in brief: as §1

[5] = test system: barnyardgrass; assay: Test B flooded paddy test; format: in vivo, Echinochloa crus-galli; conditions: 1000 g ai/ha, scale 0 to 100 (0 no effect, 100 complete control)
Method in brief: as §2

[6] = test system: ducksalad; assay: Test B flooded paddy test; format: in vivo, Heteranthera limosa; conditions: 1000 g ai/ha, scale 0 to 100 (0 no effect, 100 complete control)
Method in brief: as §2

[7] = test system: corn; assay: Test B pre-/postemergence herbicide test; format: in vivo, Zea mays
Method in brief: as §1

[8] = test system: morningglory; assay: Test B pre-/postemergence herbicide test; format: in vivo, Ipomoea coccinea
Method in brief: as §1

[9] = test system: wild oat; assay: Test B postemergence herbicide test; format: in vivo, Avena fatua
Method in brief: (§3)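 Read-out: visual comparison with controls, scored 0 to 100, where 100 means complete control and 0 no effect. Formulated chemicals were applied postemergence to plants 2–18 cm tall (1- to 4-leaf), or to flooded-paddy plants at the 2-leaf stage, then held 13 to 15 days under glass.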

[10] = test system: Surinam grass; assay: Test B pre-/postemergence herbicide test; format: in vivo, Urochloa decumbens; conditions: for Plant response rating (0 to 100 scale), Surinam Grass: 0 is no effect
Method in brief: as §1

[11] = test system: wheat; assay: Test B postemergence herbicide test; format: in vivo, Triticum aestivum; parameters: key to Wheat plant response rating: 0 = no effect, 100 = complete control
Method in brief: as §3

[12] = test system: small flower umbrella sedge; assay: Test B flooded paddy test; format: in vivo, Cyperus difformis; conditions: 1000 g ai/ha, scale 0 to 100 (0 no effect, 100 complete control)
Method in brief: as §2

[13] = test system: large crabgrass; assay: Test B pre-/postemergence herbicide test; format: in vivo, Digitaria sanguinalis; conditions: for Plant response rating (0 to 100 scale), Crabgrass, Large: 0 is no effect
Method in brief: as §1

[14] = test system: barnyardgrass; assay: Test B pre-/postemergence herbicide test; format: in vivo, Echinochloa crus-galli; conditions: for Plant response rating (0 to 100 scale), Barnyardgrass: 0 is no effect
Method in brief: as §1

[15] = test system: lambsquarters; assay: Test B pre-/postemergence herbicide test; format: in vivo, Chenopodium album
Method in brief: as §1

[16] = test system: blackgrass; assay: Test B postemergence herbicide test; format: in vivo, Alopecurus myosuroides
Method in brief: as §2

[17] = 125 g ai/ha, 100 is complete control, preemergence
[18] = 125 g ai/ha, 100 is complete control
[19] = 125 g ai/ha, 0 is no effect, 100 is complete control, preemergence
[20] = 125 g ai/ha, visual rating, scale 0 (no effect) to 100 (complete control), postemergence
[21] = 500 g ai/ha, visual rating, 0 = no effect, 100 = complete control, preemergence
[22] = postemergence, 500 g ai/ha, scale 0 to 100, 0 is no effect, 100 is complete control

CCn1nc2c(c1C(=O)Nc1cc(C(=O)N(C)C)ccc1F)CCC2(C)C [Compound 352, N-[5-[(dimethylamino)carbonyl]-2-fluorophenyl]-2-ethyl-2,4,5,6-tetrahydro-6,6-dimethyl-3-cyclopentapyrazolecarboxamide]
70%: pest or weed control at 500 g/ha ([2]; Amaranthus retroflexus, pre-emergence, 336 h, 500 g ai/ha, visual rating, 0 = no effect, 100 = complete control, read-out: Plant response rating, Pigweed) | plant injury at 1000 g/ha ([3]; Oryza sativa, 336 h, read-out: Rice plant response rating)
80%: Corn plant response rating (crop injury, 0 = no effect, 100 = complete kill) at 500 g/ha ([7]; Zea mays, pre-emergence, 500 g ai/ha, visual rating, 0 = no effect, 100 = complete control) | pest or weed control at 1000 g/ha ([12]; Cyperus difformis, 336 h, read-out: Sedge, Umbrella plant response rating)
90: Plant response rating (0 to 100 scale), Surinam Grass [10, 17] | Plant response rating (0 to 100 scale), Crabgrass, Large [13, 17] | Plant response rating (0 to 100 scale), Lambsquarters [15, 19]
60: Plant response rating (0 to 100 scale), Corn [7, 19]
0: Plant response rating (0 to 100 scale), Cocklebur [1, 17] | Plant response rating (0 to 100 scale), Morningglory [8, 19]
50: Plant response rating (0 to 100 scale), Pigweed [2, 18]
90%: pest or weed control at 1000 g/ha ([5]; Echinochloa crus-galli, 336 h, read-out: Barnyardgrass plant response rating) | pest or weed control at 1000 g/ha ([6]; Heteranthera limosa, 336 h, read-out: Ducksalad plant response rating) | pest or weed control at 500 g/ha ([14]; Echinochloa crus-galli, pre-emergence, 500 g ai/ha, visual rating, 0 = no effect, 100 = complete control, read-out: Plant response rating, Barnyardgrass)
30%: pest or weed control at 500 g/ha ([4]; Setaria faberi, post-emergence, 336 h, postemergence, 500 g ai/ha, scale 0 to 100, 0 is no effect, 100 is complete control, read-out: Foxtail, Giant plant response rating) | pest or weed control at 500 g/ha ([16]; Alopecurus myosuroides, post-emergence, 336 h, postemergence, 500 g ai/ha, scale 0 to 100, 0 is no effect, 100 is complete control, read-out: Blackgrass plant response rating)
10%: pest or weed control at 500 g/ha ([1]; Xanthium strumarium, post-emergence, postemergence, 500 g ai/ha, scale 0 to 100, 0 is no effect, 100 is complete control, read-out: Cocklebur plant response rating) | pest or weed control at 125 g/ha ([2]; Amaranthus retroflexus, post-emergence, 336 h, 125 g ai/ha, visual rating, scale 0 (no effect) to 100 (complete control), read-out: Pigweed plant response rating) | pest or weed control at 125 g/ha ([4]; Setaria faberi, post-emergence, 336 h, 125 g ai/ha, visual rating, scale 0 (no effect) to 100 (complete control), read-out: Foxtail, Giant plant response rating) | plant injury at 500 g/ha ([7]; Zea mays, post-emergence, postemergence, 500 g ai/ha, scale 0 to 100, 0 is no effect, 100 is complete control, read-out: Corn plant response rating) | pest or weed control at 125 g/ha ([8]; Ipomoea, post-emergence, 336 h, 125 g ai/ha, visual rating, scale 0 (no effect) to 100 (complete control), read-out: Morningglory plant response rating) | pest or weed control at 125 g/ha ([10]; Urochloa decumbens, post-emergence, 125 g ai/ha, visual rating, scale 0 (no effect) to 100 (complete control), read-out: Surinam Grass plant response rating) | plant injury at 125 g/ha ([11]; Triticum aestivum, post-emergence, 336 h, 125 g ai/ha, visual rating, scale 0 (no effect) to 100 (complete control), read-out: Wheat plant response rating) | pest or weed control at 500 g/ha ([14]; Echinochloa crus-galli, post-emergence, postemergence, 500 g ai/ha, scale 0 to 100, 0 is no effect, 100 is complete control, read-out: Barnyardgrass plant response rating) | pest or weed control at 125 g/ha ([15]; Chenopodium album, post-emergence, 336 h, 125 g ai/ha, visual rating, scale 0 (no effect) to 100 (complete control), read-out: Lambsquarters plant response rating) | pest or weed control at 125 g/ha ([16]; Alopecurus myosuroides, post-emergence, 336 h, 125 g ai/ha, visual rating, scale 0 (no effect) to 100 (complete control), read-out: Blackgrass plant response rating)
40%: pest or weed control at 500 g/ha ([10]; Urochloa decumbens, post-emergence, postemergence, 500 g ai/ha, scale 0 to 100, 0 is no effect, 100 is complete control, read-out: Surinam Grass plant response rating)
100%: pest or weed control at 500 g/ha ([4]; Setaria faberi, pre-emergence, 336 h, 500 g ai/ha, visual rating, 0 = no effect, 100 = complete control, read-out: Plant response rating, Foxtail, Giant) | pest or weed control at 500 g/ha ([10]; Urochloa decumbens, pre-emergence, 500 g ai/ha, visual rating, 0 = no effect, 100 = complete control, read-out: Plant response rating, Surinam Grass) | pest or weed control at 500 g/ha ([13]; Digitaria sanguinalis, pre-emergence, 500 g ai/ha, visual rating, 0 = no effect, 100 = complete control, read-out: Plant response rating, Crabgrass, Large) | pest or weed control at 500 g/ha ([15]; Chenopodium album, pre-emergence, 336 h, 500 g ai/ha, visual rating, 0 = no effect, 100 = complete control, read-out: Plant response rating, Lambsquarters)
0%: pest or weed control at 125 g/ha ([1]; Xanthium strumarium, post-emergence, 125 g ai/ha, visual rating, scale 0 (no effect) to 100 (complete control), read-out: Cocklebur plant response rating) | pest or weed control at 500 g/ha ([1]; Xanthium strumarium, pre-emergence, 500 g ai/ha, visual rating, 0 = no effect, 100 = complete control, read-out: Plant response rating, Cocklebur) | plant injury at 125 g/ha ([7]; Zea mays, post-emergence, 125 g ai/ha, visual rating, scale 0 (no effect) to 100 (complete control), read-out: Corn plant response rating) | pest or weed control at 500 g/ha ([8]; Ipomoea, pre-emergence, 336 h, 500 g ai/ha, visual rating, 0 = no effect, 100 = complete control, read-out: Plant response rating, Morningglory) | pest or weed control at 125 g/ha ([9]; Avena fatua, post-emergence, 336 h, 125 g ai/ha, visual rating, scale 0 (no effect) to 100 (complete control), read-out: Oat, Wild plant response rating) | pest or weed control at 125 g/ha ([14]; Echinochloa crus-galli, post-emergence, 125 g ai/ha, visual rating, scale 0 (no effect) to 100 (complete control), read-out: Barnyardgrass plant response rating)
70: Plant response rating (0 to 100 scale), Foxtail, Giant [4, 17] | Plant response rating (0 to 100 scale), Barnyardgrass [14, 17]
60%: pest or weed control at 500 g/ha ([2]; Amaranthus retroflexus, post-emergence, 336 h, postemergence, 500 g ai/ha, scale 0 to 100, 0 is no effect, 100 is complete control, read-out: Pigweed plant response rating) | pest or weed control at 500 g/ha ([8]; Ipomoea, post-emergence, 336 h, postemergence, 500 g ai/ha, scale 0 to 100, 0 is no effect, 100 is complete control, read-out: Morningglory plant response rating) | pest or weed control at 500 g/ha ([15]; Chenopodium album, post-emergence, 336 h, postemergence, 500 g ai/ha, scale 0 to 100, 0 is no effect, 100 is complete control, read-out: Lambsquarters plant response rating)
20%: pest or weed control at 500 g/ha ([9]; Avena fatua, post-emergence, 336 h, postemergence, 500 g ai/ha, scale 0 to 100, 0 is no effect, 100 is complete control, read-out: Oat, Wild plant response rating) | plant injury at 500 g/ha ([11]; Triticum aestivum, post-emergence, 336 h, postemergence, 500 g ai/ha, scale 0 to 100, 0 is no effect, 100 is complete control, read-out: Wheat plant response rating) | pest or weed control at 125 g/ha ([13]; Digitaria sanguinalis, post-emergence, 125 g ai/ha, visual rating, scale 0 (no effect) to 100 (complete control), read-out: Crabgrass, Large plant response rating) | pest or weed control at 500 g/ha ([13]; Digitaria sanguinalis, post-emergence, postemergence, 500 g ai/ha, scale 0 to 100, 0 is no effect, 100 is complete control, read-out: Crabgrass, Large plant response rating)

CCNC(=O)c1ccc(F)c(NC(=O)c2c3c(nn2CC)C(C)(C)CC3)c1 [Compound 353]
10: Cocklebur plant response rating [1, 20] | Corn plant response rating [7, 20] | Morningglory plant response rating [8, 20] | Oat, Wild plant response rating [9, 20] | Surinam Grass plant response rating [10, 22] | Wheat plant response rating [11, 22] | Crabgrass, Large plant response rating [13, 20] | Crabgrass, Large plant response rating [13, 22] | Barnyardgrass plant response rating [14, 20] | Barnyardgrass plant response rating [14, 22] | Blackgrass plant response rating [16, 20]
90: Sedge, Umbrella plant response rating [12] | Plant response rating, Barnyardgrass [14, 21]
0: Plant response rating (0 to 100 scale), Cocklebur [1, 17] | Plant response rating (0 to 100 scale), Pigweed [2, 18] | Plant response rating (0 to 100 scale), Foxtail, Giant [4, 17] | Plant response rating (0 to 100 scale), Surinam Grass [10, 17] | Surinam Grass plant response rating [10, 20] | Wheat plant response rating [11, 20]
20: Plant response rating, Cocklebur [1, 21] | Cocklebur plant response rating [1, 22] | Foxtail, Giant plant response rating [4, 20] | Corn plant response rating [7, 22] | Plant response rating, Morningglory [8, 21] | Plant response rating (0 to 100 scale), Crabgrass, Large [13, 17] | Lambsquarters plant response rating [15, 20]
50: Plant response rating, Foxtail, Giant [4, 21]
80: Ducksalad plant response rating [6] | Plant response rating, Crabgrass, Large [13, 21]
40: Rice plant response rating [3] | Oat, Wild plant response rating [9, 22] | Plant response rating (0 to 100 scale), Barnyardgrass [14, 17] | Lambsquarters plant response rating [15, 22] | Blackgrass plant response rating [16, 22]
30: Pigweed plant response rating [2, 20] | Foxtail, Giant plant response rating [4, 22] | Plant response rating, Surinam Grass [10, 21]
70: Pigweed plant response rating [2, 22] | Barnyardgrass plant response rating [5]

— patent publication US20060069132A1, “Azolecarboxamide herbicides” (priority 2004, published 2006)
